Measured values: patent US8802597B2, “Herbicidal pyrimidines” (E I du Pont de Nemours and Company, priority 2003, dated 2014)

Columns and labels:
Test in all cases: Test C pre/postemergence
Type in all cases: in vivo
Settings in all cases: Preemergence
[1] = system: woolly cupgrass (Eriochloa villosa)
Procedure, shortened: (§1)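 Seeds sown and sprayed preemergence with test compound in non-phytotoxic solvent containing surfactant; postemergence sprays, same formulation, went onto plants 2 to 18 cm tall (1- to 4-leaf stage). Plants held in greenhouse 12 to 14 days, then visually rated against untreated controls on a 0–100 scale (0 no effect, 100 complete control).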

[2] = system: common (oilseed) sunflower (Helianthus annuus)
Procedure, shortened: as §1

[3] = system: johnsongrass (Sorghum halepense)
Procedure, shortened: as §1

soybean (Glycine max) = system: soybean (Glycine max)
Procedure, shortened: as §1

[4] = system: crabgrass (Digitaria sanguinalis)
Procedure, shortened: as §1

[5] = system: Surinam grass (Brachiaria decumbens)
Procedure, shortened: as §1

[6] = system: morningglory (Ipomoea coccinea)
Procedure, shortened: as §1

[7] = system: bermudagrass (Cynodon dactylon)
Procedure, shortened: as §1

[8] = system: giant foxtail (Setaria faberii)
Procedure, shortened: as §1

[9] = system: pigweed (Amaranthus retroflexus)
Procedure, shortened: as §1

[10] = system: goosegrass (Eleusine indica)
Procedure, shortened: as §1

kochia (Kochia scoparia) = system: kochia (Kochia scoparia)
Procedure, shortened: as §1

[11] = 31 g ai/ha, scale 0 to 100, 0 no effect, 100 complete control
[12] = 62 g ai/ha, scale 0 to 100, 0 no effect, 100 complete control

In the case of `CCOC(=O)Cc1nc(C2CC2)nc(N)c1Br` [Compound 12], the “Plant response rating, Cupgrass, Woolly” value [1, 11] is reported as 0, the “Plant response rating, Cupgrass, Woolly” value [1, 12] is reported as 0 and the “Plant response rating, Cupgrass, Woolly” value ([1]; 125 g ai/ha, scale 0 to 100) is reported as 10. The “Plant response rating, Cupgrass, Woolly” value ([1]; 250 g ai/ha, scale 0 to 100) was 100, the “Plant response rating, Sunflower” value [2, 11] was 0 and the “Plant response rating, Sunflower” value [2, 12] was 0. The “Plant response rating, Sunflower” value ([2]; 125 g ai/ha, scale 0 to 100) was 0, the “Plant response rating, Sunflower” value ([2]; 250 g ai/ha, scale 0 to 100) was 85 and the “Plant response rating, Johnsongrass” value [3, 11] was 0. For the same compound, the “Plant response rating, Johnsongrass” value [3, 12] was 0, the “Plant response rating, Johnsongrass” value ([3]; 125 g ai/ha, scale 0 to 100) was 5 and the “Plant response rating, Johnsongrass” value ([3]; 250 g ai/ha, scale 0 to 100) was 5. The “Plant response rating, Soybean” value (soybean (Glycine max); [12]) was 50, the “Plant response rating, Soybean” value (soybean (Glycine max); 250 g ai/ha, scale 0 to 100) was 70 and the “Plant response rating, Crabgrass” value [4, 11] was 0. For the same compound, the “Plant response rating, Crabgrass” value [4, 12] was 0, the “Plant response rating, Crabgrass” value ([4]; 125 g ai/ha, scale 0 to 100) was 0 and the “Plant response rating, Crabgrass” value ([4]; 250 g ai/ha, scale 0 to 100) was 0. For the same compound, the “Plant response rating, Surinam Grass” value [5, 11] was 0, the “Plant response rating, Surinam Grass” value ([5]; 125 g ai/ha, scale 0 to 100) was 0 and the “Plant response rating, Surinam Grass” value ([5]; 250 g ai/ha, scale 0 to 100) was 0. For the same compound, the “Plant response rating, Morningglory” value [6, 11] was 30, the “Plant response rating, Morningglory” value [6, 12] was 60 and the “Plant response rating, Morningglory” value ([6]; 125 g ai/ha, scale 0 to 100) was 60. The “Plant response rating, Morningglory” value ([6]; 250 g ai/ha, scale 0 to 100) was 90, the “Plant response rating, Bermudagrass” value [7, 11] was 0 and the “Plant response rating, Bermudagrass” value [7, 12] was 0. For the same compound, the “Plant response rating, Bermudagrass” value ([7]; 125 g ai/ha, scale 0 to 100) was 0, the “Plant response rating, Bermudagrass” value ([7]; 250 g ai/ha, scale 0 to 100) was 20 and the “Plant response rating, Foxtail, Giant” value [8, 11] was 0. For the same compound, the “Plant response rating, Foxtail, Giant” value [8, 12] was 0, the “Plant response rating, Foxtail, Giant” value ([8]; 125 g ai/ha, scale 0 to 100) was 0 and the “Plant response rating, Foxtail, Giant” value ([8]; 250 g ai/ha, scale 0 to 100) was 0. For the same compound, the “Plant response rating, Pigweed” value [9, 11] was 10, the “Plant response rating, Pigweed” value [9, 12] was 50 and the “Plant response rating, Pigweed” value ([9]; 125 g ai/ha, scale 0 to 100) was 50. For the same compound, the “Plant response rating, Pigweed” value ([9]; 250 g ai/ha, scale 0 to 100) was 85, the “Plant response rating, Goosegrass” value [10, 11] was 0 and the “Plant response rating, Goosegrass” value [10, 12] was 0. The “Plant response rating, Goosegrass” value ([10]; 125 g ai/ha, scale 0 to 100) was 0, the “Plant response rating, Goosegrass” value ([10]; 250 g ai/ha, scale 0 to 100) was 0 and the “Plant response rating, Kochia” value (kochia (Kochia scoparia); [11]) was 0. The “Plant response rating, Kochia” value (kochia (Kochia scoparia); [12]) was 50, the “Plant response rating, Kochia” value (kochia (Kochia scoparia); 125 g ai/ha, scale 0 to 100) was 50 and the “Plant response rating, Kochia” value (kochia (Kochia scoparia); 250 g ai/ha, scale 0 to 100) was 85.
